# In article PMC8818024 (Structure (London, England : 1993), 2021):
# Entries after “also recorded” stand apart in the source; their conditions may differ.
# Key:
# [1] = target: Arr1 (Bos taurus, UniProt P08168); assay: Tyrosine fluorescence quenching assay of Arr1; type: binding, bovine; conditions: intrinsic quenching assay, no Mg2+; Figure 6E-F, Table S1
# [2] = tested on: bovine arrestin-1; assay: cwEPR of spin-labeled arrestin C-tail mutants; conditions: spin-labeled Arr1 mutants, room temperature, compared with apo-Arr1; Figure 3D
# Arr1, sequence (P08168 whole entry): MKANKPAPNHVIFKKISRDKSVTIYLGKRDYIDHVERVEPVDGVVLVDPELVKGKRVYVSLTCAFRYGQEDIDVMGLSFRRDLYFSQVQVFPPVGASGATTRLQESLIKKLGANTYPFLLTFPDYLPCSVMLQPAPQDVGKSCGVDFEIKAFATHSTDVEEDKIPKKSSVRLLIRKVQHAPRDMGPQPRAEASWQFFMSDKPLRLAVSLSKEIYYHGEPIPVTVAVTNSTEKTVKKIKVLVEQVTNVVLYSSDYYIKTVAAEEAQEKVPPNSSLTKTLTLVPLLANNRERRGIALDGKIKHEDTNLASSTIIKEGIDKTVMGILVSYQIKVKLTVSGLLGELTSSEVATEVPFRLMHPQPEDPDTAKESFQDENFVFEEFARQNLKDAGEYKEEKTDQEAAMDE
structure (smiles),measurement,setting,value
"O=P(O)(O)O[C@@H]1[C@H](O)[C@H](O)[C@@H](OP(=O)(O)O)[C@H](OP(=O)(O)O)[C@H]1O [InsP3, (1,4,5) myo-D-inositol triphosphate]",relative affinity for Arr1 (in words),[1],somewhat lower affinity; also recorded: lower relative affinity
same,C-tail flexibility by cwEPR (sites T396 and A401),[2],slightly more flexibility than InsP6
